Laboratory results reported in patent US20250009692A1, “Micronutrient composition to prevent and reverse protein glycation during oxidative stress in human” (priority 2023, published 2025).

Key:
[1] = tested on: subunit I of Complex IV (COX-I); experiment: Mitobiogenesis In-Cell ELISA, COX-I levels in H9c2 cells; assay type: cell-based, Rat; details: H9c2 heart muscle cells, 24 hours treatment; FIG. 7
Method: (§1) Mitobiogenesis: MitoBiogenesis™ In-Cell ELISA Kit (Colorimetric) was purchased from Abcam (Cambridge, UK). H9c2 Cells were grown to confluency in 96 well plates and treated with test ingredients for 24 hours at 37° C. Media was removed and cells were washed with Phosphate Buffered Saline provided in the kit. The cells were then fixed and processed as per the protocol provided with the kit. This assay was used to quantify two mitochondrial proteins: subunit I of Complex IV (COX-I) and the 70 kDa subunit of Complex II (SDH-A). No treatment control was used to show relative protein levels in each case.

[2] = tested on: Microglial Cells (IMG) exposed to Hydrogen Peroxide; experiment: Cell Protection from Oxidative Stress (Alamar Blue viability); assay type: cell-based, mice; details: IMG cells pretreated 24 hours, H2O2 1 hour, 24 hours recovery; FIG. 8
Text: Cell Lines: Rat Cardiomyoblasts (H9c2) were obtained from ATCC (Virginia, USA). […] Cells were maintained in Dulbecco's Modified Eagle's Medium (DMEM) from Thermofisher (MA, USA) supplemented with 10% Fetal Bovine Serum (FBS) from Thermofisher (MA, USA) and 1% Penicillin-Streptomycin (PS) from MilliporeSigma (MA, USA). Microglial Cells (IMG) were obtained from Kerafast (MA, USA). It is an immortalized microglial cell line isolated from the brains of adult mice. Cells were maintained in DMEM supplemented with 10% FBS and 1% PS.
Cell Protection from Oxidative Stress: IMG cells were grown to confluency and pretreated with test compounds for 24 hours at 37° C. Media was removed and cells were exposed to Hydrogen Peroxide for 1 hour at 37° C. After one hour, H2O2 was removed and cells were incubated in DMEM supplemented with 1% BSA for a further 24 hours at 37° C. to allow them to stabilize. Subsequently, cell viability was assessed using Alamar Blue Cell Viability Reagent from Thermofisher (MA, USA). Alamar Blue Reagent is an oxidized form of redox indicator that is blue in color. When incubated with viable cells, the reagent changes color from blue to red and can be measured by absorbance at 570 nm.
We tested protective effects of individual natural compounds and their combinations in microglial cells exposed to oxidative stress generated by hydrogen peroxide.

[3] = tested on: Succinate Dehydrogenase (SDH) subunit A; experiment: Mitobiogenesis In-Cell ELISA, SDH-A levels in H9c2 cells; assay type: cell-based, Rat; details: H9c2 cardiac muscle cells, 24 hours treatment; FIG. 6
Method: as §1

N[C@@H](CS)C(=O)O [cysteine, L Cysteine]
increase of Cox-1 levels compared to control [1]: 41%

O=C([O-])CC(O)C(=O)[O-].[Mg+2] (stereo not drawn) [magnesium malate, Magnesium Malate]
survival of cells exposed to hydrogen peroxide (viable cells) [2]: about 50%
increase of SDH levels compared to control [3]: 86%

CSCC[C@H](N)C(=O)O [methionine, Methionine]
survival of cells exposed to hydrogen peroxide (viable cells) [2]: about 50%

CC(=O)C(=O)[O-].[Na+] [sodium pyruvate, Sodium Pyruvate]
increase of SDH levels compared to control [3]: 54%

Magnesium Citrate
survival of cells exposed to hydrogen peroxide (viable cells) [2]: about 50%
